Laboratory results taken from patent US8044053B2, “Sulfonamide substituted pyrazoline compounds, their preparation and use as CB1 modulators” (Laboratories del Dr. Esteve, S.A., priority 2006, dated 2011).

Legend:
CB1-receptor [1] = target: CB1-receptor (UniProt P20272); experiment: In-vitro determination of affinity (binding) to CB1-receptors, radioligand [3H]-CP55940; design: % inh; 10^−7 M; compound at 10^−7 M; species or system human or rat; settings: compound at 10^−7 M
Protocol: (§1) I. In-Vitro Determination of Affinity to CB1/CB2-Receptors
(§2) The in-vitro determination of the affinity of the inventive substituted pyrazoline compounds to CB1/CB2-Rezeptors is carried out as described in the publication of Ruth A. Ross, Heather C. Brockie et al., “Agonist-inverse agonist characterisation at CB1 and CB2 cannabinoid receptors of L-759633, L759656 and AM630”, British Journal of Pharmacology, 126, 665-672, (1999), whereby the transfected human CB1 and CB2 receptors of Receptor Biology, Inc. are used. The radioligand used for both receptors is [^3H]-CP55940. The respective parts of the description is hereby incorporated by reference and forms part of the present disclosure.
(§3) Rat Cerebellum CB1 Binding
(§4) Binding affinity to CB1 receptor was evaluated according to a modification of the method described by Govaerts et al., Eur J Pharmac Sci 23, 233-243 (2004). The respective parts of the description is hereby incorporated by reference and forms part of the present disclosure.
(§5) Briefly, cerebellum from male wistar rats (250-300 g) were carefully dissected on ice and homogenates were prepared with Potter-Helveheim in a cold 50 mM Tris-HCl solution containing 5 mM MgCl2, 1 mM EDTA and 0.25 M sucrose, pH 7.4. The suspension was centrifuged at 1,000×g for 5 minutes. The supernatants were collected and centrifuged 50,000×g for 15 minutes. The resulting pellets were then resuspended in Tris-HCl buffer without sucrose, homogenised and incubated for 15 min at 37° C. in an orbital shaker bath and centrifuged again at 50,000×g for 15 min. Pellets were weighted, resuspended in Tris-HCl buffer without sucrose, homogenised with Ultraturrax at 13,500 rpm for 3×5 seconds and alicuoted in 0.9 ml volumes in Eppendorf tubes. Alicuotes were centrifuged at 20,800×g for 5 minutes, supernatants discarded and pellets were frozen at −80° C. until use. Total protein concentration was determined using the Bio-Rad Lowry method based kit. Competitive binding experiments were performed in presence of 1 nM [^3H]-CP 55,940 in siliconised glass tubes containing 100 μg protein/tube resuspended in 1 ml final volume of 50 mM Tris-HCl, 5 mM MgCl2, 1 mM EDTA, 0.5% (w/v) bovine serum albumin, pH 7.4. Compounds were present at various concentrations and the non specific binding was determined in the presence of 10 μM HU-210. After 1 hour incubation at 30° C., the suspension was rapidly filtered through 0.5% PEI pre-treated GF/B fiber filters on a 96-well harvester and washed 3 times with 3 ml ice-cold binding buffer without bovine serum albumin. Radioactivity on filters was measured with Wallac Winspectral 1414 counter by liquid scintillation in 6 ml Ecoscint H (National Diagnostics, U.K.). Assays were made in triplicates.
(§6) Binding data were analysed by non-linear regression with the software GraphPad Prism Version 3.03.
(§7) The binding of the pyrazoline compounds of general formulae I, Ia and Ib to CB1-receptors was determined according to the method described in the section Pharmacological Methods, Part I.

CB1-receptor [2] = target: CB1-receptor (UniProt P20272); experiment: as above; design: IC50; Ki; species or system human or rat; settings: Pharmacological Methods Part I
Protocol: as §1, §2, §3, §4, §5, §6, §7

| Compound | % inh. 10^−7 M (CB1-receptor [1]) [%] | IC50 (CB1-receptor [2]) [nM] | Ki (CB1-receptor [2]) [nM] |
| --- | --- | --- | --- |
| O=S(=O)(Cc1ccccc1)NCC1=NN(c2ccc(Cl)cc2Cl)C(c2ccc(Cl)cc2)C1 (centres unmarked) [Example 12, N-[5-(4-Chloro-phenyl)-1-(2,4-dichloro-phenyl)-4,5-dihydro-1H-pyrazol-3-ylmethyl]-C-phenyl-methanesulfonamide] | 39.4 | 130 | – |
| N#Cc1cccc(S(=O)(=O)NCC2=NN(c3ccc(Cl)cc3Cl)C(c3ccc(Cl)cc3)C2)c1 (centres unmarked) [Example 10, N-((5-(4-chlorophenyl)-1-(2,4-dichlorophenyl)-4,5-dihydro-1H-pyrazol-3-yl)methyl)-3-cyanobenzenesulfonamid] | 48.6 | 70 | – |
| Cc1ccc(F)cc1S(=O)(=O)NCC1=NN(c2ccc(Cl)cc2Cl)C(c2ccc(Cl)cc2)C1 (centres unmarked) [Example 38, N-[5-(4-Chloro-phenyl)-1-(2,4-dichloro-phenyl)-4,5-dihydro-1H-pyrazol-3-ylmethyl]-5-fluoro-2-methyl-benzenesulfonamide] | 74.0 | 4.4 | – |
| Cc1cc(S(=O)(=O)NCC2=NN(c3ccc(Cl)cc3Cl)C(c3ccc(Cl)cc3)C2)c(C)cc1Cl (centres unmarked) [Example 39, 4-Chloro-N-[5-(4-chloro-phenyl)-1-(2,4-dichloro-phenyl)-4,5-dihydro-1H-pyrazol-3-ylmethyl]-2,5-dimethyl-benzenesulfonamide] | 53.2 | 20.6 | – |
| O=S(=O)(NCC1=NN(c2ccc(Cl)cc2Cl)C(c2ccc(Cl)cc2)C1)c1cccc(C(F)(F)F)c1 (centres unmarked) [Example 18, N-[5-(4-Chloro-phenyl)-1-(2,4-dichloro-phenyl)-4,5-dihydro-1H-pyrazol-3-ylmethyl]-3-trifluoromethyl-benzenesulfonamide] | 26.1 | 140 | – |
| CCc1ccc(S(=O)(=O)NCC2=NN(c3ccc(Cl)cc3Cl)C(c3ccc(Cl)cc3)C2)cc1 (centres unmarked) [Example 43, N-[5-(4-Chloro-phenyl)-1-(2,4-dichloro-phenyl)-4,5-dihydro-1H-pyrazol-3-ylmethyl]-4-ethyl-benzenesulfonamide] | 26.7 | – | – |
| CCCCS(=O)(=O)NCC1=NN(c2ccc(Cl)cc2Cl)C(c2ccc(Cl)cc2)C1 (centres unmarked) [Example 20, Butane-1-sulfonic acid [5-(4-chloro-phenyl)-1-(2,4-dichloro-phenyl)-4,5-dihydro-1H-pyrazol-3-ylmethyl]-amide] | 27.2 | – | – |
| O=S(=O)(CC1CCCCC1)NCC1=NN(c2ccc(Cl)cc2Cl)C(c2ccc(Cl)cc2)C1 (centres unmarked) [Example 31, N-[5-(4-Chloro-phenyl)-1-(2,4-dichloro-phenyl)-4,5-dihydro-1H-pyrazol-3-ylmethyl]-C-cyclohexyl-methanesulfonamide] | 15.9 | – | – |
| COC(=O)CCc1ccc(S(=O)(=O)NCC2=NN(c3ccc(Cl)cc3Cl)C(c3ccc(Cl)cc3)C2)cc1 (centres unmarked) [Example 35, 3-(4-{[5-(4-Chloro-phenyl)-1-(2,4-dichloro-phenyl)-4,5-dihydro-1H-pyrazol-3-ylmethyl]-sulfamoyl}-phenyl)-propionic acid methyl ester] | 8.5 | – | – |
| COc1cc(C)ccc1S(=O)(=O)NCC1=NN(c2ccc(Cl)cc2Cl)C(c2ccc(Cl)cc2)C1 (centres unmarked) [Example 36, N-[5-(4-Chloro-phenyl)-1-(2,4-dichloro-phenyl)-4,5-dihydro-1H-pyrazol-3-ylmethyl]-2-methoxy-4-methyl-benzenesulfonamide] | 26.5 | – | – |
| CC(=O)Nc1ccc(S(=O)(=O)NCC2=NN(c3ccc(Cl)cc3Cl)C(c3ccc(Cl)cc3)C2)cc1Cl (centres unmarked) [Example 41, N-(2-Chloro-4-{[5-(4-chloro-phenyl)-1-(2,4-dichloro-phenyl)-4,5-dihydro-1H-pyrazol-3-ylmethyl]-sulfamoyl}-phenyl)-acetamide] | 8.2 | – | – |
| Cc1cc(S(=O)(=O)NCC2=NN(c3ccc(Cl)cc3Cl)[C@@H](c3ccc(Cl)cc3)C2)c(C)cc1Cl [Example 67, (R)-4-Chloro-N-[5-(4-chloro-phenyl)-1-(2,4-dichloro-phenyl)-4,5-dihydro-1H-pyrazol-3-ylmethyl]-2,5-dimethyl-benzenesulfonamide] | – | 91 | 40.6 |
| O=S(=O)(NCC1=NN(c2ccc(Cl)cc2Cl)C(c2ccc(Cl)cc2)C1)c1csc2ccccc12 (centres unmarked) [Example 37, Benzo[b]thiophene-3-sulfonic acid [5-(4-chloro-phenyl)-1-(2,4-dichloro-phenyl)-4,5-dihydro-1H-pyrazol-3-ylmethyl]-amide] | 27.2 | – | – |
| O=S(=O)(NCC1=NN(c2ccc(Cl)cc2Cl)C(c2ccc(Cl)cc2)C1)c1ccc(OC(F)(F)F)cc1 (centres unmarked) [Example 16, N-[5-(4-Chloro-phenyl)-1-(2,4-dichloro-phenyl)-4,5-dihydro-1H-pyrazol-3-ylmethyl]-4-trifluoromethoxy-benzenesulfonamide] | 88.0 | – | – |
| Cc1ccc(F)cc1S(=O)(=O)NCC1=NN(c2ccc(Cl)cc2Cl)[C@@H](c2ccc(Cl)cc2)C1 [Example 63, (R)-N-[5-(4-Chloro-phenyl)-1-(2,4-dichloro-phenyl)-4,5-dihydro-1H-pyrazol-3-ylmethyl]-5-fluoro-2-methyl-benzenesulfonamide] | – | 50.4 | 21 |

Results, then the compound that gave them:

| % inh. 10^−7 M (CB1-receptor [1]) [%] | IC50 (CB1-receptor [2]) [nM] | Ki (CB1-receptor [2]) [nM] | Compound |
| --- | --- | --- | --- |
| – | 65.5 | 27.7 | CCOc1ccc(C2CC(CNS(=O)(=O)c3cc(C)c(Cl)cc3C)=NN2c2ccc(Cl)cc2Cl)cc1 (centres unmarked) [Example 247, 4-Chloro-N-[1-(2,4-dichloro-phenyl)-5-(4-ethoxy-phenyl)-4,5-dihydro-1H-pyrazol-3-ylmethyl]-2,5-dimethyl-benzenesulfonamide] |
| – | 42.6 | 17.9 | CCOc1ccc(C2CC(CNS(=O)(=O)c3cc(F)ccc3F)=NN2c2ccc(Cl)cc2Cl)cc1 (centres unmarked) [Example 99, N-[1-(2,4-Dichloro-phenyl)-5-(4-ethoxy-phenyl)-4,5-dihydro-1H-pyrazol-3-ylmethyl]-2,5-difluoro-benzenesulfonamide] |
| – | 43.9 | 18.4 | COc1ccc(C2CC(CNS(=O)(=O)c3cc(C)ccc3C)=NN2c2ccc(Cl)cc2Cl)cc1 (centres unmarked) [Example 97, N-[1-(2,4-Dichloro-phenyl)-5-(4-methoxy-phenyl)-4,5-dihydro-1H-pyrazol-3-ylmethyl]-2,5-dimethyl-benzenesulfonamide] |
| – | 10.2 | 4.4 | CCOc1ccc(C2CC(CNS(=O)(=O)c3cccc(C#N)c3)=NN2c2ccc(Cl)cc2Cl)cc1 (centres unmarked) [Example 271, 3-Cyano-N-[1-(2,4-dichloro-phenyl)-5-(4-ethoxy-phenyl)-4,5-dihydro-1H-pyrazol-3-ylmethyl]-benzenesulfonamide] |
| – | 50.5 | 21.4 | Cc1ccc(C)c(S(=O)(=O)NCC2=NN(c3ccc(Cl)cc3Cl)[C@@H](c3ccc(Cl)cc3)[C@H]2C)c1 (racemic) [Example 83, cis-(4RS,5RS)-N-[5-(4-Chloro-phenyl)-1-(2,4-dichloro-phenyl)-4-methyl-4,5-dihydro-1H-pyrazol-3-ylmethyl]-2,5-dimethyl-benzenesulfonamide] |
| – | 36.7 | 16.2 | Cc1ccc(C)c(S(=O)(=O)NCC2=NN(c3ccc(Cl)cc3Cl)[C@@H](c3ccc(Cl)cc3)C2)c1 [Example 69, (R)-N-[5-(4-Chloro-phenyl)-1-(2,4-dichloro-phenyl)-4,5-dihydro-1H-pyrazol-3-ylmethyl]-2,5-dimethyl-benzenesulfonamide] |
| – | 9.8 | 9.8 | CCOc1ccc(C2CC(CNS(=O)(=O)c3cccc(F)c3)=NN2c2ccc(Cl)cc2Cl)cc1 (centres unmarked) [Example 261, N-[1-(2,4-Dichloro-phenyl)-5-(4-ethoxy-phenyl)-4,5-dihydro-1H-pyrazol-3-ylmethyl]-3-fluoro-benzenesulfonamide] |
| – | 12.8 | 5.6 | CCOc1ccc(C2CC(CNS(=O)(=O)c3cc(C(F)(F)F)ccc3Cl)=NN2c2ccc(Cl)cc2Cl)cc1 (centres unmarked) [Example 101, 2-Chloro-N-[1-(2,4-dichloro-phenyl)-5-(4-ethoxy-phenyl)-4,5-dihydro-1H-pyrazol-3-ylmethyl]-5-trifluoromethyl-benzenesulfonamide] |
